According to article PMC8617681 (Pharmaceuticals, 2021):
“Also recorded” adds a separate entry of the source.

What was measured:
[1] = molecular target: T1, human OATP1B3 (Homo sapiens, UniProt Q9NPD5); assay: Cellular uptake in OATP1B3-overexpressing HEK293 cells; format: in vitro ADME; conditions: 5 µM, 2.5 min incubation, HEK293 OATP1B3
T1 construct: Werner Siegmund and Dr. Markus Keiser (University of Greifswald); host or cells: HEK293
T1 sequence (Q9NPD5 1-702): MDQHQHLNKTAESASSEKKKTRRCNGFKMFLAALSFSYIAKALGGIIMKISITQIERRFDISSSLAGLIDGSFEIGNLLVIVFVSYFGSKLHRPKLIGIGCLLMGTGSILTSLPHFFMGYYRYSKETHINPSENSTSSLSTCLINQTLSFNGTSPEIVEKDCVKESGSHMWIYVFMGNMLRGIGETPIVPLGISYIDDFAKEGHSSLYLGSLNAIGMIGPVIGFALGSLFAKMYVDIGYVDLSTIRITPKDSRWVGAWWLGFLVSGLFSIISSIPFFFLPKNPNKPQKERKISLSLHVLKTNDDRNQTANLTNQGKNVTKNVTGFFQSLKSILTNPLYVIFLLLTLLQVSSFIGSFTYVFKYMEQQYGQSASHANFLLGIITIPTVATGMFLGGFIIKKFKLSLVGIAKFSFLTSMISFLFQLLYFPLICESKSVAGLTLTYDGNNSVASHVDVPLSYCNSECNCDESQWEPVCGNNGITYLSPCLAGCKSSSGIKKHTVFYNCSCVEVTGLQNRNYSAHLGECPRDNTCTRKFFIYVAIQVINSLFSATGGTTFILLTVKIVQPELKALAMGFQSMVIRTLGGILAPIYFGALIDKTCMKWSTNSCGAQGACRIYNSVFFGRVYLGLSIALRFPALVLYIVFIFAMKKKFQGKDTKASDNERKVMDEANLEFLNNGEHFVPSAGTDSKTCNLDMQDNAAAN
Method: HEK293 cells, vector-transfected or human (h)SLCO1A2, hSLCO1B1 or hSLCO1B3 cDNA-transfected were kind gifts from Prof. Werner Siegmund and Dr. Markus Keiser (University of Greifswald, Greifswald, Germany). All the HEK293 cell lines were maintained in DMEM supplemented with 10% (v/v) FBS, 1% penicillin–streptomycin mix at 37 °C in 5% (v/v) CO2 and 500 μg/mL G418. Cells were first seeded in 12-well plates [coated with 50 mg/L poly (l-lysine) and 50 mg/L poly (l-ornithine)] at a density of 1.0 × 10^5 cells/well. For the uptake study, in order to induce the expression of OATP transporters, the cell culture medium was replaced with culture medium supplemented with 5 mM sodium butyrate 24 h before performing the uptake assay.
The uptake transport study was performed as described previously. […] The Krebs–Henseleit solution was prepared from Krebs–Henseleit-buffer modified powder and supplemented with 25 mM NaHCO3 and 2.5 mM CaCl2 adjusted to pH 6.4 with 1 M HCL. At 2.5 min, the incubation buffer was removed, and uptake was terminated by adding 1 mL of ice-cold Krebs–Henseleit buffer, followed by two times washing with 1 mL of ice-cold Krebs–Henseleit buffer. […] The cellular protein amount was determined by the Bradford method using 10 μL of the cell lysates with bovine serum albumin as a standard.

[2] = 4 h pharmacokinetic pilot study in wild-type, Abcb1a/1b;Abcg2-/- and Slco1a/1b-/- mice; format: in vivo; conditions: for abnormal external behavior (acute toxicity): 10 mg/kg oral
Method: Mice were housed and handled according to institutional guidelines complying with Dutch and EU legislation. All experimental animal protocols were evaluated and approved by the institutional animal care and use committee. Wild-type, Abcb1a/1b^-/-, Abcg2^-/-, Abcb1a/1b; Abcg2^-/-, Slco1a/1b^-/- male mice, and Cyp3a^-/- and Cyp3aXAV female mice, all of a >99% FVB genetic background, were used between 9 and 16 weeks of age. […] All experimental animal protocols (WP9450, 9669, 9760), including power calculations, designed under the nationally approved DEC/CCD project AVD301002016595, were evaluated and approved by the institutional animal care and use committee of The Netherlands Cancer Institute. […]
For the 4 h transporter experiments, tail-vein blood samples were collected at 0.125, 0.25, 0.5, 1, and 2 h time points after oral administration, respectively. For the CYP3A 8 h experiments, tail-vein blood sampling was performed at 0.25, 0.5, 1, 2, and 4 h, respectively. While for elacridar inhibition experiments, tail-vein blood samples were collected at 0.125, 0.25, 0.5, and 1 h time points after oral administration, respectively. Blood sample collection was performed using microvettes containing dipotassium EDTA. At the last time point in each experiment (2, 4 or 8 h), mice were anesthetized with 5% isoflurane and blood was collected by cardiac puncture. Blood samples were collected in Eppendorf tubes containing heparin as an anticoagulant. The mice were then sacrificed by cervical dislocation and brain, liver, kidney, lung, small intestine and testis were rapidly removed. Plasma was isolated from the blood by centrifugation at 9000× g for 6 min at 4 °C, and the plasma fraction was collected and stored at −30 °C until analysis. Organs were homogenized with 4% (w/v) bovine serum albumin and stored at −30 °C until analysis.
Pharmacokinetic parameters were calculated by noncompartmental methods using the PK solver software. The area under the plasma concentration–time curve (AUC) was calculated using the trapezoidal rule, without extrapolating to infinity. The peak plasma concentration (Cmax) and the time of maximum plasma concentration (Tmax) were estimated from the original (individual mouse) data. One-way analysis of variance (ANOVA) was used when multiple groups were compared and the Tukey post hoc correction was used to accommodate multiple testing. The two-sided unpaired Student’s t-test was used when treatments or differences between two specific groups were compared using the software GraphPad Prism 8 (GraphPad Software Inc., La Jolla, CA, USA). All the data were log-transformed before statistical tests were applied. Differences were considered statistically significant when p < 0.05. All data are presented as geometric mean ± SD.

[3] = male, FVB (Abcb1a/1b;Abcg2-/-), mouse, in vivo, po, 10 mg/kg, 4 h
[4] = male, FVB (Slco1a/1b-/-), mouse, in vivo, po, 10 mg/kg, 4 h
[5] = male, FVB background, Abcb1a/1b;Abcg2-/-, mouse, in vivo, po, 10 mg/kg
[6] = male, FVB background, Slco1a/1b-/-, mouse, in vivo, po, 10 mg/kg
[7] = male, FVB background, wild-type, mouse, in vivo, po, 10 mg/kg

## COc1ccc(CN2C3CC2CN(c2ccc(-c4cc(OCC(C)(C)O)cn5ncc(C#N)c45)cn2)C3)cn1 [selpercatinib]
[1]
  uptake compared to vector control cells: did not observe any significant increase in the uptake
[2]; Abcb1a/1b;Abcg2-/- mice
  abnormal external behavior (acute toxicity): did not observe any abnormal external behavior
[2]; Slco1a/1b-/- mice, 10 mg/kg
  abnormal external behavior (acute toxicity): did not show any abnormal external behavior; also recorded: did not observe any abnormal external behavior
[2]; [3]
  CSIC (small intestine contents concentration): 34,929 ± 16,659 ng/g
  Cliver: 19,077 ± 2696 ng/g
[2]; male, FVB (Abcb1a/1b;Abcg2-/-), mouse, in vivo, po, 10 mg/kg, CSIC (small intestine contents concentration)
  concentration at 4 h: 34900 ng/g
[2]; male, FVB (Abcb1a/1b;Abcg2-/-), mouse, in vivo, po, 10 mg/kg, Cbrain
  concentration at 4 h: 3450 ng/g
[2]; male, FVB (Abcb1a/1b;Abcg2-/-), mouse, in vivo, po, 10 mg/kg, Cliver
  concentration at 4 h: 19100 ng/g
[2]; male, FVB (Abcb1a/1b;Abcg2-/-), mouse, in vivo, po, 10 mg/kg, Ctestis
  concentration at 4 h: 5730 ng/g
[2]; [4]
  Cbrain: 278 ± 42 ng/g
  Cliver: 19,916 ± 3174 ng/g
[2]; male, FVB (Slco1a/1b-/-), mouse, in vivo, po, 10 mg/kg, Cbrain
  concentration at 4 h: 278 ± 42 ng/g
[2]; male, FVB (Slco1a/1b-/-), mouse, in vivo, po, 10 mg/kg, Cliver
  concentration at 4 h: 19900 ng/g
[2]; male, FVB (Slco1a/1b-/-), mouse, in vivo, po, 10 mg/kg, Ctestis
  concentration at 4 h: 1120 ng/g
[2]; male, FVB (wild-type), mouse, in vivo, po, 10 mg/kg, 4 h
  Cliver: 17,593 ± 3471 ng/g
[2]; male, FVB (wild-type), mouse, in vivo, po, 10 mg/kg, Cliver
  concentration at 4 h: 17600 ng/g
[2]; [5]
  AUC(0-t): 30200 ng·h/mL
  Cmax: 8580 ± 2160 ng/mL
  Tmax: 1.6 ± 1.2 h
[2]; [6]
  AUC(0-t): 36200 ng·h/mL
  Cmax: 11600 ng/mL
  Tmax: 1.7 ± 0.52 h
[2]; male, FVB background, Slco1a/1b-/-, mouse, in vivo, po, 10 mg/kg, CSIC (small intestine contents concentration)
  concentration at 4 h: 141000 ng/g
[2]; [7]
  AUC(0-t): 26600 ng·h/mL
  Cmax: 7860 ± 1810 ng/mL
  Tmax: 1.8 ± 1.2 h
[2]; male, FVB background, wild-type, mouse, in vivo, po, 10 mg/kg, CSIC (small intestine contents concentration)
  concentration at 4 h: 91100 ng/g
[2]; male, FVB background, wild-type, mouse, in vivo, po, 10 mg/kg, Cbrain
  concentration at 4 h: 186 ± 23 ng/g
[2]; male, FVB background, wild-type, mouse, in vivo, po, 10 mg/kg, Ctestis
  concentration at 4 h: 730 ± 103 ng/g
